In assay [1] the target is T1, Polyphenol oxidase 2 (Agaricus bisporus, UniProt O42713).
T1 sequence (O42713 whole entry): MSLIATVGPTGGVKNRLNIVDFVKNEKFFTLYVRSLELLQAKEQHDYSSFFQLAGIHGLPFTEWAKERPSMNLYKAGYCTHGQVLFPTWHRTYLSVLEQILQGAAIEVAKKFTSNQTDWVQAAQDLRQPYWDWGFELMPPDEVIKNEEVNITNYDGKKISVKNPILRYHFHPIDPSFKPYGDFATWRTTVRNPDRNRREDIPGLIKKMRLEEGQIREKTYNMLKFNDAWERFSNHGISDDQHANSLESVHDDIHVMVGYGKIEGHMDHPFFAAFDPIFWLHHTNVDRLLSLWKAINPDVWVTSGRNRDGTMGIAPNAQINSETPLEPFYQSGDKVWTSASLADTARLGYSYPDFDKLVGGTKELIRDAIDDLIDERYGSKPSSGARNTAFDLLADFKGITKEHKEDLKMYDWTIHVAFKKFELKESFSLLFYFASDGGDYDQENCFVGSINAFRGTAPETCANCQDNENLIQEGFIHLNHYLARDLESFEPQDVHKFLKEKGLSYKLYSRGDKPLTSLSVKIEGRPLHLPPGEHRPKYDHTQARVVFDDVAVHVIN
The assay is described as follows: Cresolase Activity Assay. The settings on record: pH 6.8; 20 °C. Here is the method: (§1) Kinetic assay of catecholase and cresolase activities was carried out through depletion of MeBACat and MePAPh for 1 or 2 min with enzyme concentrations of 11.11 and 112.68 ug/mL at wavelenghts of 473 nm and 352 nm using a Cary spectrophotometer, 100 Biomodel with jacketed cell holders.

Assay [2] concerns the target T1, Polyphenol oxidase 2. The assay is described as follows: Catecholase Activity Assay. The following applies: pH 6.8; 20 °C. As to the method:
as §1

SMILES strings stand for the structures.

Usually Ki stands for the equilibrium dissociation constant of an inhibitor or competing ligand from its target. A high value points to lower affinity.

As to `CC(C)COC(=S)[S][Na]` [Iso-butyl xanthate, II], the Ki on Polyphenol oxidase 2 [1] is 7.2 µM; on Polyphenol oxidase 2 [2], 21.8 µM.

Regarding `CC(C)CCOC(=S)[S][Na]` [Iso-pentyl xanthate, III], the Ki at Polyphenol oxidase 2 [1] stood at 6.1 µM; at Polyphenol oxidase 2 [2] it was 42.2 µM.

For `CC(C)OC(=S)[S][Na]` [Iso-propyl xanthate, I], the values for the Ki at Polyphenol oxidase 2 [1] and on Polyphenol oxidase 2 [2] were 9.8 µM and 12.9 µM, respectively.

The record behind these values is BindingDB's records for doi:10.1080/14756360601114536 (University of Tehran, 2007).
